# Non-standard residues stand in square brackets, D forms with d. Residues, ends and D or L forms follow the SMILES beside them. *: point of attachment. Sta = CC(C)C[C@H](N)[C@@H](O)CC(=O)O; Isovaleryl = CC(C)CC(=O)*
# Assay: Cyclization of 3H-GGPP by purified elisabethatriene cyclase-containing chromatography fractions
# Format: biochemical, Pseudopterogorgia elisabethae
# Settings: judged by the formation of pseudopterosins
# Description: An example of a method for cyclizing GGPP to elisabethatriene includes the steps of providing purified elisabethatriene cyclase and contacting the GGPP substrate with the purified elisabethatriene cyclase under reaction conditions that result in the production of elisabethatriene. Any suitable reaction conditions that result in the production of elisabethatriene may be used. For example, ^3H-GGPP (1 μCi) is incubated with a suitable amount of purified elisabethatriene cyclase at 27° C. for 1-4 hours.
# To purify enzymatically active elisabethatriene cyclase, CFE samples were subjected to DEAE ion-exchange chromatography, phenyl sepharose chromatography, hydroxyapatite chromatography, and UNO™ [2-Propen-1-aminium, N,N,-dimethyl-N-2-propenyl-, chloride, polymer with 1,4-bis(1-oxo-2-propenyl)piperazine and 2-methyl-2-propenamide] ion exchange chromatography (Bio-Rad Laboratories, Hercules, Calif.). Active fractions were obtained in all cases. Fractions resulting from these purification techniques were concentrated by ultracentrifugation, and then 0.5-100 μg (brought up to a total volume of 500 μl) was assayed for enzymatic activity by incubation with 1 μCi [1]^3H-GGPP for 1 hour in 20 mM Tris buffer (pH 7.7, 3 mM EDTA, 5 mM β-mercaptoethanol, 5 mM MgCl2). Samples were quenched, extracted with 500 μl hexanes and partially purified by passing through a small silica gel pasteur pipette column. Elisabethatriene was then added as “cold carrier” and incubations were purified by high-performance liquid chromatography (HPLC). […] Radioactivity in HPLC fractions was quantified by scintillation counting.
# Using elisabethatriene cyclase purified by column chromatography as described in Example 1, GGPP was cyclized to elisabethatriene. To carry out the reaction, incubations were performed by incubating ^3H-GGPP(1 μCi) with purified elisabethatriene cyclase-containing fractions from chromatography columns at 27° C. for 1-4 hours.
row,effect of adding protease inhibitors on enzymatic activity of the fractions,SMILES
1,did not increase the enzymatic activity,CC(C)C[C@H](NC(=O)[C@@H](NC(=O)N[C@@H](Cc1ccccc1)C(=O)O)[C@@H]1CCN=C(N)N1)C(=O)N[C@H](C=O)Cc1ccccc1 [chymostatin]
2,did not increase the enzymatic activity,CC(=O)N[C@@H](CC(C)C)C(=O)N[C@@H](CC(C)C)C(=O)N[C@H](C=O)CCCNC(=N)N [leupeptin]
3,did not increase the enzymatic activity,CC(C)CC(=O)N[C@H](C(=O)N[C@H](C(=O)N[C@@H](CC(C)C)[C@@H](O)CC(=O)N[C@@H](C)C(=O)N[C@@H](CC(C)C)[C@@H](O)CC(=O)O)C(C)C)C(C)C [pepstatin] (Isovaleryl-VV[Sta]A[Sta]-OH)
